Here are results for 2 molecules from US20040044026A1, “3-Substituted quinuclidines and their use as nicotinic agonists” (priority 2000, published 2004).

The target in experiment [1] is nicotinic receptors (non-selective). The experiment can be described thus: in vitro inhibition of 3H-epibatidin binding. The conditions noted are these: radioligand 3H-epibatidin. The text has this: the in vitro inhibition of ^3H-epibatidin binding, which is a standard assay for determining non-selective binding to nicotinic receptors,
(§1) Such standard assays are described in e.g. WO 99/21834.
(§2) In this example the affinity of compounds of the invention for nicotinic acetylcholine receptors are investigated using standard assays described in WO 99/21834.
First the in vitro inhibition of ^3H-epibatidin binding, which is a standard assay for determining non-selective binding to nicotinic receptors, was determined.

Experiment [2] addresses α4β2-subtype of nicotinic receptors (Rattus norvegicus, UniProt P09483+P12390). The experiment can be described thus: in vitro inhibition of 3H-cytisine binding.
Text: the in vitro inhibition ^3H-cytisine binding, which is a standard assay for determining selective binding to α4β2 subtype of nicotinic receptors, and/or
as §1, §2
Next the in vitro inhibition ^3H-cytisine binding, which is a standard assay for determining selective binding to α4β2-subtype of nicotinic receptors, was determined.

Experiment [3] addresses α7-subtype of nicotinic receptors (Rattus norvegicus, UniProt Q05941). The experiment is described as follows: biochemical. The class given is binding.

Counter-ions that a name gives are not always drawn. Like-named read-outs stand apart in the source and are kept apart here.

α7-subtype of nicotinic receptors, sequence (Q05941 23-502): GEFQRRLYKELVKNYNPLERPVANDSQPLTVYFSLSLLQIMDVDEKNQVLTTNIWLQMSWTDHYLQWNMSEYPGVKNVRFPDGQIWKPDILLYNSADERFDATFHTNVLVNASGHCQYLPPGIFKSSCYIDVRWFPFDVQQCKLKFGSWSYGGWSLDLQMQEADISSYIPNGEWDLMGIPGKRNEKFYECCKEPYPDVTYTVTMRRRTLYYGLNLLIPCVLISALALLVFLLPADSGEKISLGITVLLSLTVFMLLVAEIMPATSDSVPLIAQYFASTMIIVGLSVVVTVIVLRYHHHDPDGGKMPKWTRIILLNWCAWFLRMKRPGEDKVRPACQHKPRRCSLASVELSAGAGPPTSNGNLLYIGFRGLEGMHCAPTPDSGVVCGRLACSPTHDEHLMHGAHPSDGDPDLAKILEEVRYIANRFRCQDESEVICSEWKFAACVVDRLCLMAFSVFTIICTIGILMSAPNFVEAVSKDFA
α4β2-subtype of nicotinic receptors, sequence (P09483 31-630): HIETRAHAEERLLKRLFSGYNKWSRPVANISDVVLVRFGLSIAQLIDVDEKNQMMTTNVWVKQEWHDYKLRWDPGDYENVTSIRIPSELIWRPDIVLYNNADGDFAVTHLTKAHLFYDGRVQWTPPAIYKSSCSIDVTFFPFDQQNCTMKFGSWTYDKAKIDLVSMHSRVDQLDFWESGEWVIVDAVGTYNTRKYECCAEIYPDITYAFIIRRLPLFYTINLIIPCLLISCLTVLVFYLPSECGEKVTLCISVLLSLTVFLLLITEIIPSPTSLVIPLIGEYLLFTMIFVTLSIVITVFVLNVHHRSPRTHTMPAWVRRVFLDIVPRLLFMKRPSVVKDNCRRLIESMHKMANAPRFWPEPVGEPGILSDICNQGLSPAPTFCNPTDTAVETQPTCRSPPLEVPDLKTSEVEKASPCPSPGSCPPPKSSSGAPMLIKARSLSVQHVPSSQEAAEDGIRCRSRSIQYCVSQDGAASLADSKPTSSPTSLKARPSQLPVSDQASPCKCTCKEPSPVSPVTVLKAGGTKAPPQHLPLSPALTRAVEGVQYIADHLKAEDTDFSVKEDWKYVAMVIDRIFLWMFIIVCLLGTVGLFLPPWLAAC
α4β2-subtype of nicotinic receptors, sequence (P12390 25-500): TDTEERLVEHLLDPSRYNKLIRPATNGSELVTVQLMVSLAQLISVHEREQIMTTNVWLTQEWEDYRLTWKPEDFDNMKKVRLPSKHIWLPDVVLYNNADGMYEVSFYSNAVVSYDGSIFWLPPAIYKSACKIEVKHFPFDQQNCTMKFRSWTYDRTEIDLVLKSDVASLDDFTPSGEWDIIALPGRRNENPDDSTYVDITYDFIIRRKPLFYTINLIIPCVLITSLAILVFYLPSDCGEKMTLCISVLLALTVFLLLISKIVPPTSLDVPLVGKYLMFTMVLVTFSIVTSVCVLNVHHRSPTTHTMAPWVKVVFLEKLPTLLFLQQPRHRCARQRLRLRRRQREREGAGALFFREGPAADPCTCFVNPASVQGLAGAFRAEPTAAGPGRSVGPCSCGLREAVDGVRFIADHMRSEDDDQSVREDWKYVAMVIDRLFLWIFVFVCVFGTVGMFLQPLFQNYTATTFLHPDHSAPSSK

For `c1ccc2cc(C3CN4CCC3CC4)ccc2c1` (racemic) [Compound C1, (±)-3-(2-Naphthyl)-quinuclidine fumaric acid salt], the IC50 (as a rule, the concentration that gives 50% inhibition) was 7.5 µM in experiment [1], 6 µM in experiment [2] and 0.15 µM in experiment [3].
Take `C1=C(c2ccc3ccccc3c2)C2CCN1CC2` [Compound B1, 3-(2-Naphthyl)-quinuclidine-3-ene fumaric acid salt]: the IC50 came out at 17 µM in experiment [1]; 10 µM in experiment [2] (radioligand 3H-cytisine, read-out: in vitro Inhibition of Binding (IC50) 3H-cytisine binding); 0.058 µM in experiment [3].
